{"source": "patent US10406128B2", "about": "“Treatment and diagnosis of colon cancer” (The Rockefeller University, priority 2012, dated 2019)", "key": {"[1]": {"system": "LvM3b cells", "assay": "Liver metastasis in mice injected with LvM3b cells with or without CKB knockdown, pre-treated with metabolite", "type": "in vivo", "conditions": "for rescue of metastasis suppression upon CKB knockdown: LvM3b cells with CKB knockdown, pre-treated 10 uM, day 21", "source_text": "CKB is known to regulate the reservoir of rapidly mobilized high-energy phosphates in tissues such as the brain and kidneys by catalyzing the transfer of a high-energy phosphate group from phosphocreatine to ADP, yielding ATP and creatine. It was hypothesized that CKB generation of ATP from phosphocreatine might provide colon cancer cells with an energetic advantage during hepatic colonization. To determine if ATP, the end-product of CKB catalysis, could rescue metastasis suppression seen upon CKB knockdown, CKB knockdown cells were loaded with ATP prior to injection of cells in experimental metastasis assays. Briefly, liver metastasis was examined in mice injected with 5×10^5 LvM3b with or without CKB knockdown and pre-treated with 100 uM ATP or vehicle. Metastatic burden was monitored by bioluminescent imaging and mice euthanized 21 days after injection.\nSimilar studies were done to determine whether creatine and phosphocreatine could rescue the phenotype of seen upon CKB knock-down. More specifically, assays were performed to examine liver metastasis in mice injected with 5×10^5 LvM3b cells pre-treated with 10 uM creatine, in the background of CKB knockdown. The mice were then euthanized as described above and liver extracted for ex vivo bioluminescent imaging at day 21 after injection. Also, colorectal cancer metastasis was examined in mice injected with 5×10^5 LvM3b cells with CKB knockdown and pre-treated with 10 uM creatine-phosphate. Liver metastasis was monitored by bioluminescent imaging and mice were euthanized as described above."}, "[2]": {"system": "LvM3b cells", "assay": "Liver metastasis in mice injected with LvM3b cells, treated by daily intra-peritoneal injection, bioluminescent imaging", "type": "in vivo", "protocol": "Mice were treated with 10 mg of cyclocreatine or saline vehicle, administered through intra-peritoneal injection. The treatment regime started one day after inoculation of tumor cells and continued until the mice were euthanized. Beta-guanidipropionic acid was administered at a dose of 200 ul of 0.5M solution through intra-peritoneal injection. Treatment regime were as that for cyclocreatine treatment.\nFinally, assays were carried out to determine the impact of small-molecule inhibition of CKB and restriction of creatine availability on colon cancer metastasis. Cyclocreatine, which resembles phosphocreatine, is a transition-state analog for creatine kinases. To examine the effect of cyclocreatine, bioluminescent measurements of liver metastasis were carried out in mice injected with 5×10^5 LvM3b cells and treated with cyclocreatine daily for two weeks. The mice were then euthanized and livers excised for ex vivo imaging at the end of the treatment.\nSimilar assays were carried out using a creatine transporter inhibitor beta-guanidinopropionic acid (B-GPA). Bioluminescent measurements were used to examine liver metastasis in mice injected with 5×10^5 LvM3b cells and treated with B-GPA daily for two weeks.\nIn this example, assays were carried out to confirm the therapeutic potential of targeting the creatine transporter channel SLC6a8 by administering the small molecule B-GPA, which is an inhibitor of SLC6a8. […] To confirm this therapeutic effect, mice injected with LvM3b colon cancer cells we treated with either B-GPA or control vehicle (PBS) via intra-peritoneal injection daily for three weeks (FIG. 2). The mice were euthanized at three weeks and liver extracted for bioluminescent imaging and gross histology.\nMore specifically, the average photon flux ratios as measure by the bioluminescence imaging for the control group (without treatment of B-GPA) and the treated groups were about 800 and 100, respectively."}, "[3]": {"system": "Ls-LvM3b colon cancer cells", "assay": "Cell viability of Ls-LvM3b cells, WST-1 reagent, 5'-Fluorouracil with or without B-GPA", "type": "cell-based, human", "conditions": "10 mM B-GPA, 48 hours", "protocol": "To that end, 10,000 Ls-LvM3b cells were seeded in triplicate in 96-well plates and treated with various concentrations of 5′-Fluorouracil with or without 10 mM of B-GPA for 48 hours. Cell viability was assayed in the same manner described above with absorbance at 440 nm an indicator of the number of viable cells."}, "[4]": {"system": "PANC1 pancreatic cancer cells", "assay": "Cell viability of PANC1 cells, WST-1 reagent, Gemcitabine with or without B-GPA", "type": "cell-based, human", "conditions": "10 mM B-GPA, 48 hours, Gemcitabine 1 nm-1000000 nm", "protocol": "Briefly, 10000 PANC1 cells were seeded in triplicate in 96-well plates and treated with various concentrations of Gemcitabine (1 nm, 10 nm, 100 nm, 1000 nm, 10000 nm, 100000 nm, and 1000000 nm) with or without 10 mM of B-GPA for 48 hours. Cell viability was then assayed using the WST-1 reagent (Roche Applied Science), with absorbance at 440 nm an indicator of the number of viable cells."}, "[5]": {"system": "PANC1 pancreatic cancer cells", "assay": "Survival of PANC1 cells pre-treated with B-GPA in immunodeficient mice, bioluminescence imaging", "type": "in vivo", "conditions": "PANC1 cells pre-treated 10 mM 48 hours", "protocol": "Briefly, PANC1 pancreatic cancer cells were incubated for 48 hours with and without the presence of 10 mM of B-GPA, then injected into immunodeficient mice (5×10^5 PANC1 cells each mouse; 4 mice each in the treated and untreated cohort). The mice were imaged with bioluminescence imaging on day 1 after injection and signal was normalized to day zero. […] More specifically, the average photon flux ratios as measure by the bioluminescence imaging for the control group (without treatment of B-GPA) and the treated groups were about 2.7 and 1.6, respectively."}, "[6]": {"target": "T1, SLC6a8 (Homo sapiens, UniProt P48029)", "T1 sequence (P48029 1-635)": "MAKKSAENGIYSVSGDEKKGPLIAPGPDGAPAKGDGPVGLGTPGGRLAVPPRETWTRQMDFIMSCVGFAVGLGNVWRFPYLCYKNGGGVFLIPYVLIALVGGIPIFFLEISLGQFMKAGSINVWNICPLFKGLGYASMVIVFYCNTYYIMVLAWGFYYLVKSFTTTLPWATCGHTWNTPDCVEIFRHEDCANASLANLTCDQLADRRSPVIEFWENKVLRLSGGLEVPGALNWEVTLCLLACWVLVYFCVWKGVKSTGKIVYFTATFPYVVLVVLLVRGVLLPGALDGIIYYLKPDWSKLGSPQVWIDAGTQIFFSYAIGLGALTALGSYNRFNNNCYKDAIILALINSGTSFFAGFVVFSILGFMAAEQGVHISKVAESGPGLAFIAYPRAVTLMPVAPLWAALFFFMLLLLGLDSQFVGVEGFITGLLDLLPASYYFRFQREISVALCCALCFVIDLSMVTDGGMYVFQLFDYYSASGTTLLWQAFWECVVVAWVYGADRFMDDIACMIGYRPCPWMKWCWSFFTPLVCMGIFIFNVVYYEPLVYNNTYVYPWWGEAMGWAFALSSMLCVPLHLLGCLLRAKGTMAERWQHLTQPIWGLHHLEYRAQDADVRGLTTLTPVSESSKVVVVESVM", "assay": "Liver metastasis by SW480 cells expressing shRNA targeting SLC6a8", "type": "in vivo, mice", "conditions": "5×10^5 SW480 cells; 28 days", "protocol": "(§1) pLKO vectors expressing shRNA hairpins targeting CKB and SLC6a8 were ordered from Sigma-Aldrich. Two independent hairpins that gave the best knockdown of transcript levels were used for all experiments. These hairpin DNA and RNA sequences are listed below:\nTo further confirm the therapeutic benefit of knockdown of SLC6a8, another independent colon cancer cell line (SW480 colon cancer cell line) expressing a short hairpin RNA targeting SLC6a8 (shSLC6a8 #2) was injected into mice (FIG. 3b)."}, "[7]": {"target": "T1, SLC6a8", "assay": "Liver metastasis by LvM3b cells expressing shRNA targeting SLC6a8", "type": "in vivo, mice", "set-up": "endogenous in cells; host or cells: LvM3b colon cancer cells (derivative of LS-174T) injected into mice", "conditions": "three weeks after inoculation", "protocol": "as §1\nBriefly, mice were injected with LvM3b colon cancer cells expressing either of two independent short hairpin RNAs (shSLC6a8 #4 or shSLC6a8 #5) targeting the creatine transporter channel SLC6a8 or with control RNA (empty pLKO vector, ordered from Sigma Aldrich) (FIG. 3a). Again, liver metastasis was monitored by bioluminescent imaging and mice were euthanized three weeks after inoculation of cancer cells. Livers were extracted for gross histology."}, "[8]": {"target": "T1, SLC6a8", "assay": "Liver metastasis by PANC1 cells expressing shRNA targeting SLC6a8", "type": "in vivo, mice", "conditions": "at 28 days", "source_text": "as §1\nLastly, the therapeutic benefit of targeting SLC6a8 was investigated in pancreatic cancer cells. To accomplish this, PANC1 pancreatic cancer cells expressing either an shRNA targeting SLC6a8 (shSLC6a8 #5) or a control RNA (empty pLKO vector) were injected into mice. Metastatic progression was monitored by bioluminescent imaging and mice were euthanized in the same manner described above."}, "[9]": {"conditions": "5×10^5 LvM3b cells, treated daily for two weeks"}}}
{"compound": "Nc1ncnc2c1ncn2[C@@H]1O[C@H](COP(=O)(O)OP(=O)(O)OP(=O)(O)O)[C@@H](O)[C@H]1O", "note": "[ATP]", "values": [{"measurement": "enhancement of suppressed metastasis phenotype", "setting": "[1]; LvM3b cells depleted of CKB, pre-treated 100 uM, 21 days", "result": "more than 10 folds"}, {"measurement": "metastatic activity of cells expressing a short-hairpin control", "setting": "[1]; LvM3b control hairpin cells, pre-treated 100 uM", "result": "did not enhance the metastatic activity"}]}
{"compound": "N=C(N)NCCC(=O)O", "note": "[B-GPA, beta-guanidinopropionic acid]", "values": [{"measurement": "metastatic colonization (liver metastasis, bioluminescence)", "setting": "[2]; [9]", "result": "significantly reduced metastatic colonization"}, {"measurement": "average photon flux ratio (bioluminescence imaging)", "setting": "[2]; LvM3b cells, daily for three weeks, control group about 800", "result": "~100"}, {"measurement": "colon cancer metastasis to the liver", "setting": "[2]; LvM3b cells, intra-peritoneal injection daily for three weeks, P<0.05", "result": "significant reduction"}, {"measurement": "effect on cytotoxic activity of 5'-Fluorouracil", "setting": "[3]", "result": "enhanced the cytotoxic activity"}, {"measurement": "effect on cytotoxic activity of Gemcitabine", "setting": "[4]", "result": "enhanced the cytotoxic activity"}, {"measurement": "average photon flux ratio (bioluminescence imaging)", "setting": "[5]; day 1 normalized to day zero, control group about 2.7", "result": "~1.6"}, {"measurement": "tumor burden of pancreatic cancer cells in vivo", "setting": "[5]; one day after injection, P<0.05", "result": "significant reduction"}]}
{"compound": "CN(CC(=O)O)C(=N)N", "note": "[creatine]", "values": [{"measurement": "rescue of metastasis suppression upon CKB knockdown", "setting": "[1]", "result": "rescued metastasis suppression"}]}
{"compound": "NC1=NCCN1CC(=O)O", "note": "[cyclocreatine]", "values": [{"measurement": "comparison with standard-of-care FOLFOX chemotherapy", "setting": "[2]; [9]", "result": "superior to the current standard-of-care FOLFOX chemotherapy"}, {"measurement": "metastatic colonization (liver metastasis, bioluminescence)", "setting": "[2]; [9]", "result": "significantly reduced metastatic colonization"}]}
{"compound": "creatine-phosphate", "values": [{"measurement": "rescue of metastasis suppression upon CKB knockdown", "setting": "[1]", "result": "rescued metastasis suppression"}]}
{"compound": "shSLC6a8 #2: short hairpin RNA targeting SLC6a8, SEQ ID NO 19 (DNA) / 20 (RNA) (CCGGGCUGGUCUACAACAACACCUACUCGAGUAGGUGUUGUUGUAGACCAGCUUUUUG; listed as RNA, chemistry not fully specified)", "values": [{"measurement": "metastasis of SW480 colon cancer cells", "setting": "[6]", "result": "significantly inhibited metastasis"}]}
{"compound": "shSLC6a8 #4: short hairpin RNA targeting SLC6a8, SEQ ID NO 13 (DNA) / 17 (RNA) (CCGGCUUAUUCCCUACGUCCUGAUCCUCGAGGAUCAGGACGUAGGGAAUAAGUUUUUG; listed as RNA, chemistry not fully specified)", "values": [{"measurement": "colon cancer metastasis (liver)", "setting": "[7]", "result": "inhibition of colon cancer metastasis"}]}
{"compound": "shSLC6a8 #5: short hairpin RNA targeting SLC6a8, SEQ ID NO 14 (DNA) / 18 (RNA) (CCGGAUUACCUGGUCAAGUCCUUUACUCGAGUAAAGGACUUGACCAGGUAAUUUUUUG; listed as RNA, chemistry not fully specified)", "values": [{"measurement": "pancreatic cancer metastasis", "setting": "[8]", "result": "significant reduction in pancreatic cancer metastasis"}, {"measurement": "colon cancer metastasis (liver)", "setting": "[7]", "result": "inhibition of colon cancer metastasis"}]}
